Experimental data taken from patent US6093742A, “Inhibitors of p38” (Vertex Pharmaceuticals, Inc., priority 1997, dated 2000).

Molecular target: T1, p38 (Homo sapiens, UniProt Q16539)
T1 construct: made in house; host or cells: Trichoplusia ni (Tn-368) High-Five insect cells infected with recombinant baculovirus (virus made in Sf9)
Test: p38 inhibition assay: inhibition of phosphorylation of EGF receptor peptide
Type: biochemical
Conditions: activated p38 (5 nM), EGF receptor peptide 200 μM, ATP 100 μM, 30 min at 30° C., pH 7.6, HPLC
Description: Two splice variants of human p38 kinase, CSBPl and CSBP2, have been identified. Specific oligonucleotide primers were used to amplify the coding region of CSBP2 cDNA using a HeLa cell library (Stratagene) as a template. The polymerase chain reaction product was cloned into the pET-15b vector (Novagen). The baculovirus transfer vector, pVL-(His)6-p38 was constructed by subcloning a XbaI-BamHI fragment of pET15b-(His)6-p38 into the complementary sites in plasmid pVL1392 (Pharmingen).
P38 was activated by combining 0.5 mg/ml p38 with 0.005 mg/ml DD-double mutant MKK6 in Buffer B+10 mM MgCl2, 2 mM ATP, 0.2 mM Na2VO4 for 30 minutes at 20° C. The activation mixture was then loaded onto a 1.0×10 cm MonoQ column (Pharmacia) and eluted with a linear 20 column volume gradient to 1.0 M NaCl in Buffer B. The activated p38 eluted after the ADP and ATP. The activated p38 peak was pooled and dialyzed against buffer B+0.2 mM Na2VO4 to remove the NaCl. The dialyzed protein was adjusted to 1.1M potassium phosphate by addition of a 4.0M stock solution and loaded onto a 1.0×10 cm HIC (Rainin Hydropore) column previously equilibrated in Buffer D (10% glycerol, 20 mM β-glycerophosphate, 2.0 mM DTT)+1.1MK2HPO4. The protein was eluted with a 20 column volume linear gradient to Buffer D+50 mM K2HPO4. The double phosphorylated p38 eluted as the main peak and was pooled for dialysis against Buffer B+0.2 mM Na2VO4. The activated p38 was stored at -70° C.
Inhibition of Phosphorylation of EGF Receptor Peptide
This assay was carried out in the presence of 10 mM MgCl2, 25 mM β-glycerophosphate, 10% glycerol and 100 mM HEPES buffer at pH 7.6. For a typical IC50 determination, a stock solution was prepared containing all of the above components and activated p38 (5 nM). The stock solution was aliquotted into vials. A fixed volume of DMSO or inhibitor in DMSO (final concentration of DMSO in reaction was 5%) was introduced to each vial, mixed and incubated for 15 minutes at room temperature. EGF receptor peptide, […], a phosphoryl acceptor in p38-catalyzed kinase reaction (1), was added to each vial to a final concentration of 200 μM. The kinase reaction was initiated with ATP (100 μM) and the vials were incubated at 30° C. After 30 minutes, the reactions were quenched with equal volume of 10% trifluoroacetic acid (TFA).
The phosphorylated peptide was quantified by HPLC analysis. Separation of phosphorylated peptide from the unphosphorylated peptide was achieved on a reverse phase column (Deltapak, 5 μm, C18 100D, part no. 011795) with a binary gradient of water and acteonitrile, each containing 0.1% TFA. IC50 (concentration of inhibitor yielding 50% inhibition) was determined by plotting the % activity remaining against inhibitor concentration.

T1 sequence (Q16539 whole entry): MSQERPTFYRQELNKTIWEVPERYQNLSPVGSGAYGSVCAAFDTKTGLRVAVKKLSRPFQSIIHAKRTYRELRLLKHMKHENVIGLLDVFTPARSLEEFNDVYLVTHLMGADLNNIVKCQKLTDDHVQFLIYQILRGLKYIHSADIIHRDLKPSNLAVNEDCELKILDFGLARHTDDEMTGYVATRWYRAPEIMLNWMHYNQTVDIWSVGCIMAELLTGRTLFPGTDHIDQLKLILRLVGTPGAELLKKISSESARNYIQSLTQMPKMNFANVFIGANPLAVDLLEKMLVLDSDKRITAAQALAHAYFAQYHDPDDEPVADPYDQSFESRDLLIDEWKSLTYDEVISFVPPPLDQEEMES

| Structure (SMILES) | IC50 [nM] |
| --- | --- |
| O=C(Nc1ccccc1)Nc1ccc(Cl)c(Cl)c1 [Compound 62] | 5600 |
| COc1cc(OC)c(NC(=O)Nc2ccc(Cl)cc2F)cc1Cl [Compound 30] | 1200 |
| O=C(Nc1cccc(C(=O)O)c1)Nc1ccc(Cl)c(Cl)c1 [Compound 63] | 5800 |
| COc1cc(Cl)c(C)cc1NC(=O)Nc1ccccc1 [Compound 61] | 140 |
| CCOc1ccccc1NC(=O)Nc1ccc(Cl)c(Cl)c1 [Compound 121] | 2200 |
| O=C(Nc1ccc(Cl)c(Cl)c1)Nc1ccc2c(c1)OCCO2 [Compound 126] | 5600 |
| COc1cc(OC)c(NC(=O)Nc2ccc(F)cc2)cc1Cl [Compound 29] | 1450 |
| COc1cc(OC)c(NC(=O)Nc2ccc(F)c(F)c2)cc1Cl [Compound 33] | 1820 |
| O=C(Nc1ccc(Cl)c(Cl)c1)Nc1ccc(Cl)c(Cl)c1 [Compound 64] | 130 |
| COc1cc(OC)c(NC(=O)Nc2ccccc2)cc1Cl [Compound 12] | 380 |
| O=C(Nc1ccc(Cl)c(Cl)c1)Nc1cccc2cccnc12 [Compound 131] | 6300 |
| COc1cc(OC)c(NC(=O)Nc2cccc(F)c2)cc1Cl [Compound 35] | 630 |
| COc1cc(OC)c(NC(=O)Nc2ccc(Cl)c(Cl)c2)cc1Cl [Compound 24] | 500 |
| NC(=O)c1ccccc1NC(=O)Nc1ccc(Cl)c(Cl)c1 [Compound 107] | 100 |
| O=C(Nc1ccc(Cl)c(Cl)c1)Nc1ccc(Br)cc1C(=O)O [Compound 125] | 8400 |
| COc1cc(OC)c(NC(=O)Nc2ccccc2)cc1Cl [Compound 25] | 1000 |

| Structure (SMILES) | IC50 [nM] |
| --- | --- |
| Cc1cc(Cl)c([N+](=O)[O-])cc1NC(=O)Nc1ccccc1 [Compound 3] | 370 |
| COc1cc(OC)c(NC(=O)Nc2ccc(Oc3ccccc3)cc2)cc1Cl [Compound 20] | 8000 |
| COc1cc(OC)c(NC(=O)Nc2cc(C)ccc2Cl)cc1Cl [Compound 37] | 5100 |
| COc1cc([N+](=O)[O-])c(C)cc1NC(=O)Nc1ccccc1 [Compound 13] | 140 |
| COC(=O)c1ccccc1NC(=O)Nc1ccc(Cl)c(Cl)c1 [Compound 119] | 6300 |
| COc1cc(OC)c(NC(=O)Nc2ccc3c(c2)OCO3)cc1Cl [Compound 40] | 1500 |
| COc1cc(Cl)c(C)cc1NC(=O)Nc1ccccc1 [Compound 4] | 100 |
| COc1cc(OC)c(NC(=O)Nc2ccccc2F)cc1Cl [Compound 31] | 500 |
| Cc1cc(C)c(NC(=O)Nc2ccccc2)cc1C [Compound 10] | 4200 |
| Cc1cc(NC(=O)Nc2ccccc2)c(Cl)cc1F [Compound 15] | 5800 |
| COc1cc(OC)c(NC(=O)Nc2ccccc2O)cc1Cl [Compound 28] | 7400 |
| COc1cc(C)cc(NC(=O)Nc2ccc(Cl)c(Cl)c2)c1 [Compound 118] | 14700 |
| COc1cc(OC)c(NC(=O)Nc2cccc(Oc3ccccc3)c2)cc1Cl [Compound 22] | 1900 |
| COc1cc(OC)c(NC(=O)N(CC(=O)O)c2ccccc2)cc1Cl [Compound 34] | 19000 |
| O=C(Nc1ccc(Cl)c(Cl)c1)Nc1ccccc1Cl [Compound 122] | 15100 |
